According to ChEMBL document CHEMBL1201861, “Genomics of Drug Sensitity in Cancer screening data, Wellcome Trust Sanger Institute”:

Experiments:
Test in all cases: cells
NCI-H1355 = format: functional, cell-based, Homo sapiens; settings: Homo sapiens, NCI-H1355;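 further: growth inhibition of human NCI-H1355 cells, read out by a cell viability assay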
Description: SANGER: Inhibition of human NCI-H1355 cell growth in a cell viability assay.

NEC8 = format: functional, cell-based, Homo sapiens; settings: Homo sapiens, NEC8;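 further: growth inhibition of human NEC8 cells, read out by a cell viability assay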
Description: SANGER: Inhibition of human NEC8 cell growth in a cell viability assay.

SK-MEL-1 = format: functional, cell-based, Homo sapiens; settings: Homo sapiens, SK-MEL-1;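 further: growth inhibition of human SK-MEL-1 cells, read out by a cell viability assay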
Description: SANGER: Inhibition of human SK-MEL-1 cell growth in a cell viability assay.

ES1 = format: functional, cell-based, Homo sapiens; settings: Homo sapiens, ES1;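 further: growth inhibition of ES1 cells, read out with a cell viability assay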
Description: SANGER: Inhibition of human ES1 cell growth in a cell viability assay.

A3-KAW = format: functional, cell-based, Homo sapiens; settings: Homo sapiens, A3-KAW;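 further: growth inhibition of human A3-KAW cells, read out with a cell viability assay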
Description: SANGER: Inhibition of human A3-KAW cell growth in a cell viability assay.

LS-1034 = format: functional, cell-based, Homo sapiens; settings: Homo sapiens, LS-1034
Description: SANGER: Inhibition of human LS-1034 cell growth in a cell viability assay.

SNU-C2B = format: functional, cell-based; settings: Homo sapiens;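 further: cell viability readout used to measure compound-driven suppression of SNU-C2B cell proliferation, IC50 marking half-maximal growth inhibition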
Description: SANGER: Inhibition of human SNU-C2B cell growth in a cell viability assay.

NOMO-1 = format: functional, cell-based, Homo sapiens; settings: Homo sapiens, NOMO-1;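 further: growth inhibition of human NOMO-1 cells measured by a cell viability assay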
Description: SANGER: Inhibition of human NOMO-1 cell growth in a cell viability assay.

8-MG-BA = format: functional, cell-based, Homo sapiens; settings: Homo sapiens, 8-MG-BA;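 further: growth inhibition of 8-MG-BA cells, read out with a cell viability assay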
Description: SANGER: Inhibition of human 8-MG-BA cell growth in a cell viability assay.

BT-474 = format: functional, cell-based, Homo sapiens; settings: Homo sapiens, BT-474
Description: SANGER: Inhibition of human BT-474 cell growth in a cell viability assay.

HOP-62 = format: functional, cell-based, Homo sapiens; settings: Homo sapiens, HOP-62;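 further: cell growth inhibition determined with a viability assay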
Description: SANGER: Inhibition of human HOP-62 cell growth in a cell viability assay.

A388 = format: functional, cell-based; settings: Homo sapiens;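 further: growth inhibition of human A388 cells, read out with a cell viability assay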
Description: SANGER: Inhibition of human A388 cell growth in a cell viability assay.

JVM-3 = format: functional, cell-based, Homo sapiens; settings: Homo sapiens, JVM-3;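 further: growth inhibition of human JVM-3 cells, read out with a cell viability assay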
Description: SANGER: Inhibition of human JVM-3 cell growth in a cell viability assay.

MS-1 = format: functional, cell-based, Homo sapiens; settings: Homo sapiens, MS-1
Description: SANGER: Inhibition of human MS-1 cell growth in a cell viability assay.

EOL1 = format: functional, cell-based, Homo sapiens; settings: Homo sapiens, EOL1;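 further: growth inhibition of EoL-1 cells, read out by a cell viability assay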
Description: SANGER: Inhibition of human EoL-1-cell cell growth in a cell viability assay.

SK-LMS-1 = format: functional, cell-based, Homo sapiens; settings: Homo sapiens, SK-LMS-1;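 further: growth inhibition of human SK-LMS-1 cells, read out with a cell viability assay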
Description: SANGER: Inhibition of human SK-LMS-1 cell growth in a cell viability assay.

SK-N-DZ = format: functional, cell-based, Homo sapiens; settings: Homo sapiens, SK-N-DZ; read-out: IC50;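 further: growth inhibition of the cancer cell line, read out through a viability assay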
Description: SANGER: Inhibition of human SK-N-DZ cell growth in a cell viability assay.

KGN = format: functional, cell-based, Homo sapiens; settings: Homo sapiens, KGN;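 further: growth inhibition of KGN cells, read out with a cell viability assay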
Description: SANGER: Inhibition of human KGN cell growth in a cell viability assay.

HCE-4 = format: functional, cell-based; settings: Homo sapiens;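 further: cell viability assay measuring inhibition of growth in the human HCE-4 cell line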
Description: SANGER: Inhibition of human HCE-4 cell growth in a cell viability assay.

NMC-G1 = format: functional, cell-based, Homo sapiens; settings: Homo sapiens, NMC-G1;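 further: growth inhibition of the NMC-G1 cell line, measured with a cell viability read-out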
Description: SANGER: Inhibition of human NMC-G1 cell growth in a cell viability assay.

DSH1 = format: functional, cell-based; settings: Homo sapiens;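 further: growth inhibition of human DSH1 cells, measured with a cell viability readout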
Description: SANGER: Inhibition of human DSH1 cell growth in a cell viability assay.

D283 Med = format: functional, cell-based, Homo sapiens; settings: Homo sapiens, D283 Med
Description: SANGER: Inhibition of human D-283MED cell growth in a cell viability assay.

OCUB-M = format: functional, cell-based; settings: Homo sapiens;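 further: growth inhibition of the cancer cell line, read out through a cell viability assay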
Description: SANGER: Inhibition of human OCUB-M cell growth in a cell viability assay.

NCI-H1299 = format: functional, cell-based; settings: Homo sapiens;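 further: growth inhibition of human NCI-H1299 cells, read out by a cell viability assay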
Description: SANGER: Inhibition of human NCI-H1299 cell growth in a cell viability assay.

CCRF-CEM = format: functional, cell-based, Homo sapiens; settings: Homo sapiens, CCRF-CEM;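 further: inhibition of CCRF-CEM cell growth, measured by a cell viability assay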
Description: SANGER: Inhibition of human CCRF-CEM cell growth in a cell viability assay.

SHP77 = format: functional, cell-based, Homo sapiens, SHP-77; settings: Homo sapiens, SHP77;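 further: growth inhibition of human SHP-77 cells measured by a cell viability assay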
Description: SANGER: Inhibition of human SHP-77 cell growth in a cell viability assay.

SK-N-FI = format: functional, cell-based, Homo sapiens; settings: Homo sapiens, SK-N-FI;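 further: cell viability assay measuring growth inhibition of human SK-N-FI cells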
Description: SANGER: Inhibition of human SK-N-FI cell growth in a cell viability assay.

MZ1-PC = format: functional, cell-based, Homo sapiens; settings: Homo sapiens, MZ1-PC;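 further: cell viability assay measuring growth inhibition of human MZ1-PC cells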
Description: SANGER: Inhibition of human MZ1-PC cell growth in a cell viability assay.

HEL = format: functional, cell-based, Homo sapiens; settings: Homo sapiens, HEL;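 further: growth inhibition of HEL cells, read out with a cell viability assay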
Description: SANGER: Inhibition of human HEL cell growth in a cell viability assay.

RPMI-8866 = format: functional, cell-based, Homo sapiens; settings: Homo sapiens, RPMI-8866
Description: SANGER: Inhibition of human RPMI-8866 cell growth in a cell viability assay.

JAR = format: functional, cell-based, Homo sapiens; settings: Homo sapiens, JAR;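 further: growth inhibition of human JAR cells determined with a cell viability assay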
Description: SANGER: Inhibition of human JAR cell growth in a cell viability assay.

TE-9 = format: functional, cell-based, Homo sapiens; settings: Homo sapiens, TE-9;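 further: cell growth inhibition, measured with a cell viability readout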
Description: SANGER: Inhibition of human TE-9 cell growth in a cell viability assay.

RPMI-8226 = format: functional, cell-based, Homo sapiens; settings: Homo sapiens, RPMI-8226
Description: SANGER: Inhibition of human RPMI-8226 cell growth in a cell viability assay.

COLO-320-HSR = format: functional, cell-based, Homo sapiens; settings: Homo sapiens, COLO-320-HSR;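 further: growth inhibition of COLO-320-HSR cells, determined with a cell viability assay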
Description: SANGER: Inhibition of human COLO-320-HSR cell growth in a cell viability assay.

NTERA-2-cl-D1 = format: functional, cell-based, Homo sapiens; settings: Homo sapiens, NTERA-2-cl-D1;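 further: inhibition of cell growth, measured with a cell viability assay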
Description: SANGER: Inhibition of human NTERA-S-cl-D1 cell growth in a cell viability assay.

SW982 = format: functional, cell-based; settings: Homo sapiens;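 further: growth inhibition of SW982 cells, read out with a cell viability assay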
Description: SANGER: Inhibition of human SW982 cell growth in a cell viability assay.

RH-1 = format: functional, cell-based, Homo sapiens; settings: Homo sapiens, RH-1;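 further: growth inhibition of human RH-1 cells, read out with a cell viability assay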
Description: SANGER: Inhibition of human RH-1 cell growth in a cell viability assay.

BE-13 = format: functional, cell-based, Homo sapiens; settings: Homo sapiens, BE-13;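 further: growth inhibition of human BE-13 cells, measured with a cell viability assay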
Description: SANGER: Inhibition of human BE-13 cell growth in a cell viability assay.

TE-8 = format: functional, cell-based, Homo sapiens; settings: Homo sapiens, TE-8;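 further: growth inhibition of TE-8 cells, measured with a cell viability readout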
Description: SANGER: Inhibition of human TE-8 cell growth in a cell viability assay.

NCI-H1648 = format: functional, cell-based, Homo sapiens; settings: Homo sapiens, NCI-H1648;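 further: cell viability assay measuring inhibition of NCI-H1648 cell growth, from the Sanger screening data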
Description: SANGER: Inhibition of human NCI-H1648 cell growth in a cell viability assay.

NCI-H69 = format: functional, cell-based, Homo sapiens; settings: Homo sapiens, NCI-H69;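 further: growth inhibition of the cell line, read out with a cell viability assay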
Description: SANGER: Inhibition of human NCI-H69 cell growth in a cell viability assay.

MV4-11 = format: functional, cell-based, Homo sapiens, MV-4-11; settings: Homo sapiens, MV4-11;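 further: cell viability readout measuring growth inhibition of human MV-4-11 cells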
Description: SANGER: Inhibition of human MV-4-11 cell growth in a cell viability assay.

LB2518-MEL = format: functional, cell-based; settings: Homo sapiens;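 further: growth inhibition of human LB2518-MEL cells, measured with a cell viability assay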
Description: SANGER: Inhibition of human LB2518-MEL cell growth in a cell viability assay.

D-247MG = format: functional, cell-based; settings: Homo sapiens
Description: SANGER: Inhibition of human D-247MG cell growth in a cell viability assay.

NB13 = format: functional, cell-based, Homo sapiens; settings: Homo sapiens, NB13;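 further: cell viability readout measuring growth inhibition of human NB13 cells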
Description: SANGER: Inhibition of human NB13 cell growth in a cell viability assay.

NB69 = format: functional, cell-based, Homo sapiens; settings: Homo sapiens, NB69;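 further: growth inhibition of NB69 cells, determined by a cell viability assay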
Description: SANGER: Inhibition of human NB69 cell growth in a cell viability assay.

SW 962 = format: functional, cell-based, Homo sapiens; settings: Homo sapiens, SW 962;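 further: growth inhibition of human SW962 cells, read out by a cell viability assay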
Description: SANGER: Inhibition of human SW962 cell growth in a cell viability assay.

LU-139 = format: functional, cell-based, Homo sapiens; settings: Homo sapiens, LU-139
Description: SANGER: Inhibition of human LU-139 cell growth in a cell viability assay.

SF-126 = format: functional, cell-based, Homo sapiens; settings: Homo sapiens, SF-126;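 further: growth inhibition of human SF126 cells, read out with a cell viability assay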
Description: SANGER: Inhibition of human SF126 cell growth in a cell viability assay.

AM-38 = format: functional, cell-based, Homo sapiens; settings: Homo sapiens, AM-38;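 further: growth inhibition of AM-38 cells of human origin, read out by a cell viability assay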
Description: SANGER: Inhibition of human AM-38 cell growth in a cell viability assay.

In the case of `NC(=O)Nc1cc(-c2cccc(F)c2)sc1C(=O)N[C@H]1CCCNC1` [AZD-7762], the IC50 (NCI-H1355) is reported as 679 nM, the IC50 (NEC8) is reported as 42 nM and the IC50 (SK-MEL-1) is reported as greater than 2000 nM. The IC50 (ES1) was 71.5 nM, the IC50 (A3-KAW) was 88.1 nM and the IC50 (LS-1034) was greater than 2000 nM. It also gave an IC50 (SNU-C2B) of 281 nM, an IC50 (NOMO-1) of 61.2 nM and an IC50 (8-MG-BA) of 258 nM. It also gave an IC50 (BT-474) greater than 2000 nM, an IC50 (HOP-62) of 726 nM and an IC50 (A388) greater than 2000 nM. The IC50 (JVM-3) was 230 nM, the IC50 (MS-1) was greater than 2000 nM and the IC50 (EOL1) was less than 7.81 nM. For the same compound, the IC50 (SK-LMS-1) was greater than 2000 nM, the IC50 (SK-N-DZ) was 531 nM and the IC50 (KGN) was 1230 nM. It also gave an IC50 (HCE-4) of 970 nM, an IC50 (NMC-G1) of 986 nM and an IC50 (DSH1) of 1690 nM. The IC50 (D283 Med) was 137 nM, the IC50 (OCUB-M) was greater than 2000 nM and the IC50 (NCI-H1299) was 556 nM. The IC50 (CCRF-CEM) was 292 nM, the IC50 (SHP77) was greater than 2000 nM and the IC50 (SK-N-FI) was 1490 nM. It also gave an IC50 (MZ1-PC) greater than 2000 nM, an IC50 (HEL) of 225 nM and an IC50 (RPMI-8866) of 139 nM. For the same compound, the IC50 (JAR) was 232 nM, the IC50 (TE-9) was 1630 nM and the IC50 (RPMI-8226) was 175 nM. It also gave an IC50 (COLO-320-HSR) of 1000 nM, an IC50 (NTERA-2-cl-D1) greater than 2000 nM and an IC50 (SW982) of 784 nM. It also gave an IC50 (RH-1) of 227 nM, an IC50 (BE-13) of 201 nM and an IC50 (TE-8) of 1120 nM. For the same compound, the IC50 (NCI-H1648) was greater than 2000 nM, the IC50 (NCI-H69) was greater than 2000 nM and the IC50 (MV4-11) was less than 7.81 nM. The IC50 (LB2518-MEL) was greater than 2000 nM, the IC50 (D-247MG) was greater than 2000 nM and the IC50 (NB13) was 537 nM. For the same compound, the IC50 (NB69) was 705 nM, the IC50 (SW 962) was greater than 2000 nM and the IC50 (LU-139) was greater than 2000 nM. It also gave an IC50 (SF-126) of 574 nM and an IC50 (AM-38) greater than 2000 nM.
For `CN(NC(=O)CC(=O)NN(C)C(=S)c1ccccc1)C(=S)c1ccccc1` [ELESCLOMOL], the IC50 (NCI-H1355) was 8.89 nM, the IC50 (NEC8) was 11.5 nM and the IC50 (SK-MEL-1) was greater than 200 nM. The IC50 (ES1) was 0.749 nM, the IC50 (A3-KAW) was 86.5 nM and the IC50 (LS-1034) was greater than 200 nM. It also gave an IC50 (SNU-C2B) greater than 200 nM, an IC50 (NOMO-1) greater than 200 nM and an IC50 (8-MG-BA) of 9.14 nM. For the same compound, the IC50 (BT-474) was 19.2 nM, the IC50 (HOP-62) was 122 nM and the IC50 (A388) was greater than 200 nM. The IC50 (JVM-3) was greater than 200 nM, the IC50 (MS-1) was 166 nM and the IC50 (EOL1) was 62 nM. The IC50 (SK-LMS-1) was greater than 200 nM, the IC50 (SK-N-DZ) was 189 nM and the IC50 (KGN) was greater than 200 nM. It also gave an IC50 (HCE-4) of 59.1 nM, an IC50 (NMC-G1) of 20.4 nM and an IC50 (DSH1) of 23.3 nM. For the same compound, the IC50 (D283 Med) was 40.9 nM, the IC50 (OCUB-M) was 195 nM and the IC50 (NCI-H1299) was 18.5 nM. For the same compound, the IC50 (CCRF-CEM) was greater than 200 nM, the IC50 (SHP77) was greater than 200 nM and the IC50 (SK-N-FI) was 81.5 nM. It also gave an IC50 (MZ1-PC) of 144 nM, an IC50 (HEL) of 7.08 nM and an IC50 (RPMI-8866) of 30 nM. The IC50 (JAR) was 5.97 nM, the IC50 (TE-9) was 117 nM and the IC50 (RPMI-8226) was 46 nM. For the same compound, the IC50 (COLO-320-HSR) was greater than 200 nM, the IC50 (NTERA-2-cl-D1) was 19.4 nM and the IC50 (SW982) was 7.44 nM. The IC50 (RH-1) was 58.2 nM, the IC50 (BE-13) was greater than 200 nM and the IC50 (TE-8) was 5.41 nM. The IC50 (NCI-H1648) was greater than 200 nM, the IC50 (NCI-H69) was greater than 200 nM and the IC50 (MV4-11) was 18 nM. For the same compound, the IC50 (LB2518-MEL) was 66.9 nM, the IC50 (D-247MG) was 24.7 nM and the IC50 (NB13) was 23.1 nM. It also gave an IC50 (NB69) of 1.22 nM, an IC50 (SW 962) of 111 nM and an IC50 (LU-139) of 121 nM. It also gave an IC50 (SF-126) of 1.95 nM and an IC50 (AM-38) of 169 nM.
